According to ChEMBL document CHEMBL6121000, “Corosolic acid and its derivatives targeting MCCC1 against insulin resistance and their hypoglycemic effect on type 2 diabetic mice” (Eur J Med Chem, 2025):
In brackets after ≈: the same amount, converted by molar mass. Activity calls are given as the source filed them. The calls are words filed in the database; no cut-off is given here.

What was measured:
[1] = Toxicity in Sprague-Dawley rat assessed as inflammatory cell infiltration in colon tissue at 20 mg/kg, po for 5 days; format: organism-based; conditions: in vivo, 120 h, time 5 day
HepG2 [2] = experiment: Inhibition of insulin resistance in human HepG2 cells assessed as restoration of GlcN-reduced MCCC1 level at 40 uM preincubated for 1 hr followed by GlcN treatment for 18 hrs by Western blot analysis; format: functional, cell-based; conditions: time 19.0 hrs
[3] = Cytotoxicity against human HepG2 cells assessed as cell viability at 80 uM incubated for 24 hrs by CCK8 assay relative to control; format: toxicity, cell-based; conditions: HepG2 cells, read-out: Activity
[4] = Toxicity in Sprague-Dawley rat assessed as damage in liver at 20 mg/kg, po for 5 days; format: organism-based; conditions: in vivo, 120 h, time 5 day
Mus musculus [5] = experiment: Hypoglycemic activity in HFD-fed STZ-induced diabetic C57BL/6J mouse model assessed as increase in GLUT4 level in liver at 10 to 20 mg/kg, po administered everyday for 3 weeks by Western blot analysis; format: functional, organism-based; conditions: dose 10-20 mg/kg
Mus musculus [6] = experiment: Hypoglycemic activity in HFD-fed STZ-induced diabetic C57BL/6J mouse model assessed as reversal of diabetes-reduced MCCC1 level in liver at 10 to 20 mg/kg, po administered everyday for 3 weeks by Western blot analysis; format: functional, organism-based; conditions: dose 10-20 mg/kg
HepG2 [7] = experiment: Inhibition of insulin resistance in human HepG2 cells assessed as decrease in GlcN-induced glucose production at 40 uM preincubated for 1 hr followed by GlcN treatment for 18 hrs and subsequent insulin stimulation for 20 mins in presence of VPA by glucose oxidase-peroxidase assay; format: functional, cell-based; conditions: time 19.33 hrs
HepG2 [8] = experiment: Inhibition of insulin resistance in human HepG2 cells assessed as restoration of GlcN-reduced MCCC1 level at 40 uM preincubated for 1 hr followed by GlcN treatment for 18 hrs in presence of VPA by Western blot analysis; format: functional, cell-based; conditions: time 19.0 hrs
HepG2 [9] = experiment: Induction of glucose uptake in human HepG2 cells assessed as increase in GlcN-reduced AKT phosphorylation at 40 uM preincubated for 1 hr followed by GlcN addition measured after 18 hrs in presence of VPA by Western blot analysis; format: functional, cell-based; conditions: time 19.0 hrs
HepG2 [10] = experiment: Induction of glucose uptake in human HepG2 cells assessed as increase in GlcN-reduced GLUT4 level at 2.5 to 20 uM preincubated for 1 hr followed by GlcN addition measured after 24 hrs by Western blot analysis; format: functional, cell-based; conditions: dose 2.5-20 µM, time 25.0 hrs
[11] = Solubility of compound in PBS; format: physicochemical
Mus musculus [12] = experiment: Hypoglycemic activity in 12 hr-fasted STZ-induced diabetic C57BL/6J mouse model assessed as decrease in AUC of blood glucose level at 20 mg/kg, po measured upto 120 mins by insulin tolerance test relative to control; format: functional; parameters: scale not given: the % may be the effect or the level left; conditions: 2 h
Mus musculus [13] = experiment: Hypoglycemic activity in HFD-fed STZ-induced diabetic C57BL/6J mouse model assessed as increase in hepatic glycogen synthesis at 10 to 20 mg/kg, po administered everyday for 3 weeks; format: functional, organism-based; conditions: dose 10-20 mg/kg
[14] = Toxicity in Sprague-Dawley rat assessed as damage in heart at 20 mg/kg, po for 5 days; format: organism-based; conditions: in vivo, 120 h, time 5 day
HEK293 = experiment: Cytotoxicity against HEK293 cells assessed as cell viability at 40 to 320 uM incubated for 24 hrs by CCK8 assay relative to control; format: toxicity, cell-based; conditions: human, hek293, 24 h, dose 40-320 µM
Mus musculus [15] = experiment: Hypoglycemic activity in HFD-fed STZ-induced diabetic C57BL/6J mouse model assessed as improvement in total cholesterol level in liver at 10 to 20 mg/kg, po administered everyday for 3 weeks; format: functional, organism-based; conditions: dose 10-20 mg/kg
HepG2 [16] = experiment: Lipid lowering activity in human HepG2 cells assessed as reduction in FFA-induced triglyceride content at 20 uM preincubated for 1 hr followed by FFA treatment for 24 hrs; format: functional, cell-based; conditions: time 25.0 hrs
HepG2 [17] = experiment: Induction of glucose uptake in human HepG2 cells assessed as increase in GlcN-reduced AKT phosphorylation at 2.5 to 20 uM preincubated for 1 hr followed by GlcN addition measured after 24 hrs by Western blot analysis; format: functional, cell-based; conditions: dose 2.5-20 µM, time 25.0 hrs
[18] = target: T1, Methylcrotonoyl-CoA carboxylase subunit alpha, mitochondrial (Homo sapiens) (UniProt Q96RQ3); experiment: Binding affinity to MCCC1 in human HepG2 cells assessed as reduction in pronase-mediated MCCC1 degradation at 40 to 80 uM preincubated for 1 hr followed by pronase addition measured after 10 mins by DARTS assay; format: cell-based; conditions: dose 40-80 µM, time 70.0 min
T1 sequence (whole entry): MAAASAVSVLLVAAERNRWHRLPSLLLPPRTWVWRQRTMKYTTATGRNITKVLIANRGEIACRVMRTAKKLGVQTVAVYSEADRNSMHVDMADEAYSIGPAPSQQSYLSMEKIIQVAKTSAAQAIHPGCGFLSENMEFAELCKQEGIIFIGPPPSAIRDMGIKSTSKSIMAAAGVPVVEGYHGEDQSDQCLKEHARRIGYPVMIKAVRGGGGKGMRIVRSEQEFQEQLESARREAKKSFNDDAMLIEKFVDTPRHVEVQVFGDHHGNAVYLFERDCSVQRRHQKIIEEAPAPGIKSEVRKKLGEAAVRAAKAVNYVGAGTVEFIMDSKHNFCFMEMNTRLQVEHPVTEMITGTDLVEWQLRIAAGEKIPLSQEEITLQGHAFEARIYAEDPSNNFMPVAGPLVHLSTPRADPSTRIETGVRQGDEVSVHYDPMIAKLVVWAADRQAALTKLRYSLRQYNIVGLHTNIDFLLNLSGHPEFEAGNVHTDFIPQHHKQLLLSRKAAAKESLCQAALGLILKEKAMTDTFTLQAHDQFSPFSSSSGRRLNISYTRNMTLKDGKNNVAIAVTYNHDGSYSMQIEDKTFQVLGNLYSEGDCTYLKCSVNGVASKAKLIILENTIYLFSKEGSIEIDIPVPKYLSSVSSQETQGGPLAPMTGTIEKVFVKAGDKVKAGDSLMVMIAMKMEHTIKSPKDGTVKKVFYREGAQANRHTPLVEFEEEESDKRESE

Mus musculus [19] = experiment: Hypoglycemic activity in HFD-fed STZ-induced diabetic C57BL/6J mouse model assessed as reduction in glucose production at 10 to 20 mg/kg, po administered everyday for 3 weeks; format: functional, organism-based; conditions: dose 10-20 mg/kg
[20] = Toxicity in Sprague-Dawley rat assessed as damage in colon at 20 mg/kg, po for 5 days; format: organism-based; conditions: in vivo, 120 h, time 5 day
Mus musculus [21] = experiment: Hypoglycemic activity in 12 hr-fasted STZ-induced diabetic C57BL/6J mouse model assessed as decrease in blood glucose level at 20 mg/kg, po measured for 30 to 90 mins by insulin tolerance test; format: functional, organism-based; conditions: time 30-90 min
Mus musculus [22] = experiment: Hypoglycemic activity in HFD-fed STZ-induced diabetic C57BL/6J mouse model assessed as improvement in weight loss at 10 to 20 mg/kg, po administered everyday for 3 weeks; format: functional, organism-based; conditions: dose 10-20 mg/kg
Mus musculus [23] = experiment: Hypoglycemic activity in HFD-fed STZ-induced diabetic C57BL/6J mouse model assessed as increase in AKT phosphorylation in liver at 10 to 20 mg/kg, po administered everyday for 3 weeks by Western blot analysis; format: functional, organism-based; conditions: dose 10-20 mg/kg
HepG2 [24] = experiment: Induction of glucose uptake in human HepG2 cells assessed as increase in GlcN-reduced GSK-3beta phosphorylation at 2.5 to 20 uM preincubated for 1 hr followed by GlcN addition measured after 24 hrs by Western blot analysis; format: functional, cell-based; conditions: dose 2.5-20 µM, time 25.0 hrs
[25] = target: T1, Methylcrotonoyl-CoA carboxylase subunit alpha, mitochondrial (Homo sapiens); experiment: Binding affinity to MCCC1 in human HepG2 cells assessed as thermal stability at 40 uM incubated for 1 hr followed by heat exposure for 3 mins by CETSA; format: cell-based
[26] = Toxicity in Sprague-Dawley rat assessed as damage in spleen at 20 mg/kg, po for 5 days; format: organism-based; conditions: in vivo, 120 h, time 5 day
HepG2 [27] = experiment: Inhibition of insulin resistance in human HepG2 cells assessed as decrease in GlcN-induced glucose production at 20 uM preincubated for 1 hr followed by GlcN treatment for 18 hrs and subsequent insulin stimulation for 20 mins; format: functional, cell-based; conditions: time 19.33 hrs
HepG2 [28] = experiment: Inhibition of insulin resistance-associated inflammation in human HepG2 cells assessed as increase in GlcN-reduced I-kaapaB-alpha level at 2.5 to 20 uM preincubated for 1 hr followed by GlcN addition measured after 24 hrs by Western blot analysis; format: functional, cell-based; conditions: dose 2.5-20 µM
Mus musculus [29] = experiment: Hypoglycemic activity in HFD-fed STZ-induced diabetic C57BL/6J mouse model assessed as decrease in blood glucose level at 10 to 20 mg/kg, po administered everyday for 3 weeks; format: functional, organism-based; conditions: dose 10-20 mg/kg
[30] = Toxicity in Sprague-Dawley rat assessed as reduction in number of crypts in colon tissue at 20 mg/kg, po for 5 days; format: organism-based; conditions: in vivo, 120 h, time 5 day
HepG2 [31] = experiment: Lipid lowering activity in human HepG2 cells assessed as inhibition of FFA-induced triglyceride content at 20 uM preincubated for 1 hr followed by FFA treatment for 24 hrs relative to control; format: functional
[32] = Toxicity in Sprague-Dawley rat assessed as damage in lungs at 20 mg/kg, po for 5 days; format: organism-based; conditions: in vivo, 120 h, time 5 day
Mus musculus [33] = experiment: Hypoglycemic activity in HFD-fed STZ-induced diabetic C57BL/6J mouse model assessed as improvement in triglyceride level in liver at 10 to 20 mg/kg, po administered everyday for 3 weeks; format: functional, organism-based; conditions: dose 10-20 mg/kg

Structure (SMILES): C[C@H]1[C@H](C)CC[C@]2(C(=O)NCC(=O)O)CC[C@]3(C)C(=CC[C@@H]4[C@@]5(C)C[C@@H](O)[C@H](O)C(C)(C)[C@@H]5CC[C@]43C)[C@H]12
- Activity [1]: Non-toxic
- inhibition (HepG2 [2]): Active
- viability at 24 h, 80 µM [3]: > 80%
- Activity [4]: Non-toxic
- Activity (Mus musculus [5]): Active
- Activity (Mus musculus [6]): Active
- inhibition (HepG2 [7]): inactive
- inhibition (HepG2 [8]): inactive
- Activity (HepG2 [9]): inactive
- Activity (HepG2 [10]): Active
- solubility [11]: 3.98 mM (≈ 2110 µg/mL)
- Activity (Mus musculus [12]): 19.4%
- Activity (Mus musculus [13]): Active
- Activity [14]: Non-toxic
- Activity (HEK293): Non-toxic
- Activity (Mus musculus [15]): Active
- Activity (HepG2 [16]): Active
- Activity (HepG2 [17]): Active
- Activity [18]: Active
- Activity (Mus musculus [19]): Active
- Activity [20]: Non-toxic
- Activity (Mus musculus [21]): Active
- Activity (Mus musculus [22]): Active
- Activity (Mus musculus [23]): Active
- Activity (HepG2 [24]): Active
- Activity [25]: Active
- Activity [26]: Non-toxic
- inhibition (HepG2 [27]): Active
- inhibition (HepG2 [28]): Active
- Activity (Mus musculus [29]): Active; Activity Similar To Metformin At 200 Mg/Kg
- Activity [30]: Non-toxic
- inhibition at 20 µM (HepG2 [31]): 59.5%
- Activity [32]: Non-toxic
- Activity (Mus musculus [33]): Active
